Experimental data taken from publication PMC5865150, “Structure and evolution of the Fam20 kinases” (Nature Communications, 2018).
Changes are numbered by the printed parent chain. In names and notes the source's numbering stands.

T1: Fam20A−drFam20C complex (Homo sapiens, UniProt Q96MK3)
T1 construct: human Fam20A residues 69-529 with zebrafish Fam20C residues 124-560, High Five cells, His6-MBP tags removed with TEV; heterotetramer; with Extracellular serine/threonine protein kinase FAM20C (Danio rerio)
T1 sequence (Q96MK3 69-529): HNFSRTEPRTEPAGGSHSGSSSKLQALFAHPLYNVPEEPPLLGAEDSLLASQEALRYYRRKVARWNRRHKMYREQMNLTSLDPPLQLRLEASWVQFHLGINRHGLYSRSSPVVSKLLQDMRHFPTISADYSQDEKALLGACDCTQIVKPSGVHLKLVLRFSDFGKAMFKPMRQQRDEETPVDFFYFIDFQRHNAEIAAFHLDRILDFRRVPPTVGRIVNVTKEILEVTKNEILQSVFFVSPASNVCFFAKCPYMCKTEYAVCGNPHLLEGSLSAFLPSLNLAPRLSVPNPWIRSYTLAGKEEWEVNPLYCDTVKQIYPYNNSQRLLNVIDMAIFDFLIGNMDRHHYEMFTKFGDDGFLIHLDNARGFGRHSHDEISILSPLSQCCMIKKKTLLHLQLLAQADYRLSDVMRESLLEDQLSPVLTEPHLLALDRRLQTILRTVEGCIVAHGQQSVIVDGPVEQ
T1 sequence (E7FBB8 26-545 partner): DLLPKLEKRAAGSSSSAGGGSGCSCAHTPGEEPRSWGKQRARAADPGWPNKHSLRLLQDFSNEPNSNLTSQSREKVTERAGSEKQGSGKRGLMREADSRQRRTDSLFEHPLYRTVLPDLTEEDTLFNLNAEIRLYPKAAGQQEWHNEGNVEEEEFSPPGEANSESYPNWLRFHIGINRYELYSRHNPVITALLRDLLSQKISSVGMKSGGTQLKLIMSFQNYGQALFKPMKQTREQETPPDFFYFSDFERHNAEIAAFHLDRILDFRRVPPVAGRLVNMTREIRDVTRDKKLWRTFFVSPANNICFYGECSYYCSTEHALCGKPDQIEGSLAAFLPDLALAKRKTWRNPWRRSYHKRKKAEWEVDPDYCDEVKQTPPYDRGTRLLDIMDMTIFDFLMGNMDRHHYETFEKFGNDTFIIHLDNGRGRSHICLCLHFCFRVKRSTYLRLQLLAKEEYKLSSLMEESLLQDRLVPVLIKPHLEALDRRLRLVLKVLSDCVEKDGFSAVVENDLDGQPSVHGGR

T2: human Fam20A−Fam20C complex (Homo sapiens, UniProt Q96MK3)
T2 construct: Fam20A residues 69-529 and Fam20C residues 63-584, High Five cells, His6-MBP tags removed with TEV; heterodimer in crystal; with Extracellular serine/threonine protein kinase FAM20C
T2 sequence (Q96MK3 69-529): T1 sequence (Q96MK3 69-529)
T2 sequence (Q8IXL6 63-584 partner): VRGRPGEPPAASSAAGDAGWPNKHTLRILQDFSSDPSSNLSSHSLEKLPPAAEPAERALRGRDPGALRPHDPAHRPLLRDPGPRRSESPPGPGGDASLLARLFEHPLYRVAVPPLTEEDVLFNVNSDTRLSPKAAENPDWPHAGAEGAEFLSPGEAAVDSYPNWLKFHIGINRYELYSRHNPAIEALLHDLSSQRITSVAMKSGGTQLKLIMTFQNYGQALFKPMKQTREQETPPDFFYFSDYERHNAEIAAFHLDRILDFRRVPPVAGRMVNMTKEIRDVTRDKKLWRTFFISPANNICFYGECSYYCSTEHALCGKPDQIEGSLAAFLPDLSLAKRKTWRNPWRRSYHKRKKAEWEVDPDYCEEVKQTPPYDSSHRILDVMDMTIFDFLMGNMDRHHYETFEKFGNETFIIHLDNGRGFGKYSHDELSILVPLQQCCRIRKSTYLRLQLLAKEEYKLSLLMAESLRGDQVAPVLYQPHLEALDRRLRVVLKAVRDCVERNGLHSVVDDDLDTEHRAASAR

T3: human Fam20B (hsFam20B) (Homo sapiens, UniProt O75063)
T3 construct: residues 55-402, His6-MBP fusion secreted from High Five insect cells, Ni-NTA; monomer
T3 sequence (O75063 55-402): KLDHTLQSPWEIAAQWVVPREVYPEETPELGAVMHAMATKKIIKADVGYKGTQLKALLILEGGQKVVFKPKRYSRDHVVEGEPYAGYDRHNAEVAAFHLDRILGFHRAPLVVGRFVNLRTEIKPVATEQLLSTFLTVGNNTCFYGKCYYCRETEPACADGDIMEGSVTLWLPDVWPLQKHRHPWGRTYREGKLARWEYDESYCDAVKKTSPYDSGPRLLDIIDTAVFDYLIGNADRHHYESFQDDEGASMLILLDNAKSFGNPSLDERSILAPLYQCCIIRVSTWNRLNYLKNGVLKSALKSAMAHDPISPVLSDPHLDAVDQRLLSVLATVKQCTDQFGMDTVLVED

T4: human Fam20B (hsFam20B) (Homo sapiens, UniProt O75063, K312R)
T4 construct: residues 55-402, His6-MBP fusion secreted from High Five insect cells, Ni-NTA; monomer
T4 sequence (O75063 55-402 K312R): T3 sequence (O75063 55-402) with K258R

T5: human Fam20C (residues 63-584), untagged (human, UniProt Q8IXL6 63-584)
T5 construct: human Fam20C, residues 63-584; also called hsFam20C; source: High Five insect cells (baculovirus), conditioned medium, purified (Ni-NTA, TEV digestion, Resource Q, size exclusion); not shown: His6, N-terminal, cleaved; MBP, N-terminal, cleaved
T5 sequence (looked up): T2 sequence (Q8IXL6 63-584 partner)

B1: human Fam20A (residues 69-529), untagged (domain or fragment, UniProt Q96MK3 69-529, looked up)
chain: T1 sequence (Q96MK3 69-529)
notes: human Fam20A, pseudokinase, residues 69-529; Crystallised and kept with 0.25 mM ATP; also called hsFam20A; source: High Five insect cells (baculovirus), conditioned medium, purified (Ni-NTA, TEV digestion, Resource Q, size exclusion); not shown: His6, N-terminal, cleaved; MBP, N-terminal, cleaved
B2: Fam20A E299G/I300S (domain or fragment, human, UniProt Q96MK3 69-529, looked up)
chain: T1 sequence (Q96MK3 69-529) with E231G, I232S
notes: human Fam20A, residues 69-529; The mutations create a site for N-linked glycosylation (Asn298-Gly299-Ser300); The limits are those of the only insect-cell Fam20A construct told in the methods; source: High Five insect cells (baculovirus), conditioned medium, purified as the WT protein
B3: purified human Fam20C (residues 63-584) of the solution studies (domain or fragment, UniProt Q8IXL6 63-584, looked up)
chain: T2 sequence (Q8IXL6 63-584 partner)
notes: human Fam20C, residues 63-584; otherwise the same construct as m2 and m8; also called WT Fam20C; hsFam20C; source: High Five insect cells (baculovirus), conditioned medium, purified
B4: ceFam20 (Fam20C ortholog of Caenorhabditis elegans) (enzyme)
chain: SLPHQPIPPSLGEKDLSDPFNFLFSSNKITLRKLYDLTKNVDFDQLRQNECKKNITLSKFWEKSEQRNVPEDDNWERFYSNIGSCSVYSDDQMIDNLLHDLNTSPIKHVHIMDGGTQVKFVFTFKNDKQAVFKPMRFGRDYESDPNHFYFSDFERHHAEIATFHLDRVLGFRRAIPTVGRVLNMTTELFEKAEKKLKKTFFFSPAKNFCFVSRCDYYCDTTHAICGLPDMKEGSVQVFLPDESAVPRKHNRSPYRRTYSKKNQVAEWQSSMNYCTDKVKTKRQYAHGRRLLDLVDIHILDYLIGNQDRHHFESFNVFNDLPSYAIHLDHGRAFGRSDFDDDDIILPLRQCCILRPSTFQTLMNFYSTPKSLTKALHESLSKDPAHPILAYKHYPAMERRLAKIMSHILECFESRGVAEVLVAEYNNPDVSDAEQNDEEQSEEHQDKKDDKKTV
notes: C. elegans Fam20 (ceFam20)

How the values were obtained:
Fam20A−drFam20C complex = molecular target: T1, Fam20A−drFam20C complex; assay: X-ray crystal structure, […] Å; format: binding; details: 0.25 mM ATP; ATP-1 bound to Fam20A in inverted orientation
[1] = molecular target: T2, human Fam20A−Fam20C complex; assay: X-ray crystal structure, […] Å; format: binding; details: 0.25 mM ATP; ATP-1 bound to Fam20A in inverted orientation; ATP-2 bound to Fam20A at a second site, possibly a crystallization artifact
aqFam20 = molecular target: T6, aqFam20 (Amphimedon queenslandica, UniProt A0A1X7UVU4); assay: […] incorporation from [γ-32P]ATP, Sep-Pak C18, scintillation counting; format: biochemical; details: 100 uM Gal-Xyl-benzyl, 100 uM ATP, 10 mM MnCl2, pH 7.5, 30 °C
T6 construct: gene 100636703; residues 31-418, His6-MBP fusion secreted from High Five insect cells, cloned from cDNA library; monomer

human Fam20B (hsFam20B) [2] = molecular target: T3, human Fam20B (hsFam20B); assay: as above; format: biochemical; details: 100 uM Gal-Xyl-benzyl, 100 uM ATP, 10 mM MnCl2, pH 7.5, 30 °C
hmFam20 = molecular target: T7, hmFam20 (Hydra vulgaris, UniProt A0ABM4BCH6); assay: X-ray crystal structure, […] Å; details: co-crystallised with 2 mM Gal-Xyl-benzyl, 5 mM AMP-PNP, 10 mM MgCl2, pH 6.9; pocket next to the ATP-binding site; also phosphorylated by this enzyme (Figure 5b)
T7 construct: gene LOC100203383; residues 55-415, codon-optimized synthetic gene, High Five cells; for crystals His6-MBP removed with TEV and N-glycans trimmed with endoglycosidase F3; monomer

human Fam20B (hsFam20B) [3] = molecular target: T4, human Fam20B (hsFam20B); assay: […] incorporation from [γ-32P]ATP, Sep-Pak C18, scintillation counting; format: biochemical; details: 100 uM Gal-Xyl-benzyl, 100 uM ATP, 10 mM MnCl2, pH 7.5, 30 °C; mutant activity completely abolished
[4] = molecular target: T5, human Fam20C (residues 63-584), untagged; assay: crystal structure; human Fam20A-Fam20C complex, formed with 0.25 mM ATP and purified by size exclusion; crystals at 20 °C in 2% 1,4-dioxane, 0.1 M Bicine pH 9.0, 9% PEG 20,000; details: both partners purified
[5] = molecular target: B3; assay: SEC; Fam20A mutants with human Fam20C; tetramer formation followed (Supplementary Fig. 5D); details: both partners purified
[6] = molecular target: the molecule itself; assay: AUC; purified Fam20C alone; oligomerises in a concentration-dependent manner; ~1 mg per ml
[7] = molecular target: the molecule itself; assay: not stated; ceFam20 (WT or F260A/P263G) in solution (Supplementary Fig. 3C)

T7 sequence (A0ABM4BCH6 entry or part of it): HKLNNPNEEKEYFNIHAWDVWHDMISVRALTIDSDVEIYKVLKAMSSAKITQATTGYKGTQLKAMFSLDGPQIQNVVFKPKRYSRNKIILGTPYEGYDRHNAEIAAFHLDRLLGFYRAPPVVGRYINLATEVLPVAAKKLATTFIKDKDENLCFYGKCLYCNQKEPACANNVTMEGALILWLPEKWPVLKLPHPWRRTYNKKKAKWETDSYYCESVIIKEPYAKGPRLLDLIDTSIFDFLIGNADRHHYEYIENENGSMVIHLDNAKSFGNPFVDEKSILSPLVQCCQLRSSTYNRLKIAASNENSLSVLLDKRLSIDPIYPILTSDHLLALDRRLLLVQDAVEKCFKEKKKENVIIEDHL
T6 sequence (A0A1X7UVU4 entry or part of it): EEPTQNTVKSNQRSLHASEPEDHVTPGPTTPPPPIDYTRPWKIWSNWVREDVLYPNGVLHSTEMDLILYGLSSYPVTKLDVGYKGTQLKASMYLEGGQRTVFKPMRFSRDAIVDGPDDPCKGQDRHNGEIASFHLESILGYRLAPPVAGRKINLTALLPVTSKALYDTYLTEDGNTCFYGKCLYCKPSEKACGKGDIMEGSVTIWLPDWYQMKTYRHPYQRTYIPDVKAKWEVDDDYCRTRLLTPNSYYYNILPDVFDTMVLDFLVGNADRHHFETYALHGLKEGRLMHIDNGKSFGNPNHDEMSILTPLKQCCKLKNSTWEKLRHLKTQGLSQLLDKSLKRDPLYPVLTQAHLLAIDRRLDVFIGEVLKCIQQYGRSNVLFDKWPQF

`Nc1ncnc2c1ncn2[C@@H]1O[C@H](COP(=O)(O)OP(=O)(O)OP(=O)(O)O)[C@@H](O)[C@H]1O` [ATP] was tested, and the “X-ray crystal structure, 3.55 Å” value (Fam20A−drFam20C complex) was “In both structures, an ATP molecule (ATP-1) is bound to Fam20A in an inverted orientation” and the “X-ray crystal structure, 3.30 Å” value [1] was “In both structures, an ATP molecule (ATP-1) is bound to Fam20A in an inverted orientation”.

For `OC[C@H]1O[C@@H](O[C@@H]2CO[C@@H](OCc3ccccc3)[C@H](O)[C@H]2O)[C@H](O)[C@@H](O)[C@H]1O` [Gal-Xyl, Galβ1-4Xylβ1-O-benzyl], the “32P incorporation from [γ-32P]ATP, Sep-Pak C18, scintillation counting” value (from here on “32P incorporation from [γ-32P]ATP”) (aqFam20) was “sponge (aqFam20) and hydra (hmFam20) phosphorylate the Gal-Xyl disaccharide”, the “32P incorporation from [γ-32P]ATP” value (human Fam20B (hsFam20B) [2]) was “phosphorylate the Gal-Xyl disaccharide with efficiencies similar to human Fam20B (hsFam20B)” and the “X-ray crystal structure, 2.85 Å” value (hmFam20) was “we also determined the structure of hmFam20 in complex with Gal-Xyl”. For the same molecule, the “32P incorporation from [γ-32P]ATP” value (human Fam20B (hsFam20B) [3]) was “in human Fam20B (K312R, Fig. 6c) completely abolishes kinase activity”.

B1: binds [4].

B2: binds [5].

In the case of B3, the “stoichiometry N” value [6] is reported as 2.

In the case of B4, the “stoichiometry N” value [7] is reported as 2.
